Tests used:
Wild type C57BL/6J mice = experiment: Laser-induced choroidal neovascularization (CNV), CNV volume and F4/80 staining; format: in vivo, mouse; details: for Neovascularization (CNV volume): FTOi i.p. pretreatment plus 25 ng intravitreous after laser injury, day 7, isolectin B4 staining
Procedure: Laser photocoagulation (532 nm, 180 mW, 100 ms, 75 μm) (OcuLight GL; IRIDEX Corp., Mountain View, CA, USA) was performed bilaterally (volume studies: 4 spots per eye; RNA analyses: 10 spots per eye) in 6- to 8-week-old mice on day 0 to induce CNV as previously described 1-3. For drug treatment, the mice pretreated with FTO inhibitor (FB23-2, SML2694, Sigma) or vehicle (DMSO) through intraperitoneal injection (i.p, 2 mg/kg). Then, the mice were subjected to laser photocoagulation followed by intravitreous injection of the FTO inhibitor (25 ng/0.5 μl per eye) or vehicle. At day 3 after laser injury, the mice were administered the FTO inhibitor (2 mg/kg) or vehicle via intraperitoneal injection. At day 7, the eyes were collected for fluorescein labeled-isolectin B4 and F4/80 staining and for neovascular volume quantification.
RPE flat mounts were prepared as previously described 5. Briefly, at day 3 or 7 after laser injury, mice eyes were enucleated and dissected as retina and sclera-RPE-choroid complexes. The RPE-choroid sheets were immediately fixed in 4% paraformaldehyde (Electron Microscopy Sciences, 50-980-495, USA) in phosphate-buffered saline for 1 hour. […] As described previously^1, CNV volumes were determined by labeling with fluorescein labeled Griffonia Simplicifolia Lectin I (GSL I) isolectin B4 (Vector Laboratories, FL-1201, USA). […] FTO expression was visualized by immunolabeling with anti-FTO antibody (AdipoGen Life Sciences, AG-20A-0083, USA), and the specificity of labeling was assessed using isotype serum immunolabeling. […] Fluorescence images were captured by Nikon AIR laser scanning confocal microscope.
Laser photocoagulation (532 nm, 180 mW, 100 ms, 75 μm) (OcuLight GL; IRIDEX Corp., Mountain View, CA, USA) was performed bilaterally (volume studies: four spots per eye; protein analyses: 20 spots per eye) in 6- to 8-week-old male mice on day 0 to induce CNV in a masked fashion. […] Choroidal neovascularization was visualized using a blue argon laser wavelength (488 nm) and a scanning laser confocal microscope and quantified using Image J software.

Human THP-1 cells = experiment: VEGFA release in human THP-1 cells (ELISA); format: cell-based; details: indicated dosage of FTOi, 24 hours or 48 hours; supernatant ELISA
Procedure: Primary WT or mutant mouse bone marrow derived macrophages (BMDMs) were isolated as previously described (4). BMDMs were cultured in IMDM (Gibco) basal medium containing 10% fetal bovine serum (FBS), 30% L929 supernatants, nonessential amino acids, sodium pyruvate, 2-mercaptoethanol, and antibiotics. THP-1 cells were cultured in RPMI 1640 medium with 10% FBS and antibiotics. Human RPE cells were isolated as previously described and cultured in DMEM medium with 10% FBS and antibiotics. All cells were maintained at 37° C. in a 5% CO2 environment.
The RPE-choroid complex was isolated from mouse eyes on day 3 after laser injury and treatment with FTO inhibitor or vehicle. Eye tissues were lysed by sonication with immunoprecipitation assay (RIPA) buffer (Sigma-Aldrich, R0278, USA) containing protease inhibitor (Sigma-Aldrich, 11836170001, USA), on ice for 15 minutes. The lysate was centrifuged at 20,000×g for 15 minutes at 4° C., and total protein in the lysates was quantified using the Thermo Scientific™ Pierce™ BCA™ Protein Assay (Fisher Scientific, PI23225, USA). VEGFA protein levels in the supernatants were measured by VEGF DuoSet ELISA (R&D Systems, DY493, USA), following the manufacturer's instructions. […] VEGFA levels in the supernatants were measured by mouse or human VEGF DuoSet ELISA (R&D Systems, DY493 or DY293B, USA), following the manufacturer's instructions.

macrophage = experiment: mRNA abundance of other pro-angiogenic factors in macrophages (RT-PCR); format: cell-based, mouse; details: FTO inhibition
Procedure: Total RNA was extracted from mouse BMDMs or eye tissues with TRIzol™ Reagent (Thermo Fisher Scientific, 15596018, USA) and quantified by using a NanoDrop 2000 spectrophotometer (Thermo-Fisher Scientific, USA). Reverse transcription was performed using the QuantiTect Reverse Transcription kit (205313, QIAGEN). Target genes were amplified by real-time quantitative polymerase chain reaction (PCR) (Applied Biosystems, 7900 HT Fast Real-Time PCR system) with Power SYBR Green Master Mix. Relative gene expression was determined by the 2^−ΔΔCt method, and 18S rRNA or GAPDH (glyceraldehyde-3-phosphate dehydrogenase) was used as an internal control.

Cc1noc(C)c1-c1cc(Cl)c(Nc2ccccc2C(=O)NO)c(Cl)c1 [FB23-2]
Neovascularization (CNV volume) (Wild type C57BL/6J mice): inhibits angiogenesis | Neovascularization (CNV volume) (Wild type C57BL/6J mice; listed as selective inhibitor): significant reduction in neovascularization | F4/80 macrophage recruitment (Wild type C57BL/6J mice; laser-induced CNV, FTO inhibitor in vivo, F4/80 staining): not in F4/80 macrophage recruitment | VEGFA release (Human THP-1 cells): inhibits VEGFA release | mRNA abundance of other pro-angiogenic factors (Plgf, Pdgfa) (macrophage): did not significantly alter the mRNA abundance

— patent US20260174858A1, “TARGETING THE m6A MRNA DEMETHYLASE FTO” (University of Virginia Patent Foundation, priority 2022, published 2026)
